{
  "source": "patent US10059956B2",
  "about": "“Glycosyltransferase gene and use thereof” (SUNTORY HOLDINGS LIMITED, priority 2012, dated 2018)",
  "data": [
    {"tested_on": "NmGT8 protein", "assay": "Enzyme reaction of flavone substrates with His-tag purified NmGT8 protein solution and UDP-glucose (HPLC)", "assay_type": "biochemical, Nemophila menziesii", "conditions": "NmGT8 protein solution, UDP-glucose, 1 mM substrate stock, 20 minutes at 30° C., HPLC 330 nm", "experimental": "The transformed E. coli were cultured at 37° C. to an OD600 value of 0.5 in 8 ml of the prepared culture liquid (approx. 4 hours). This E. coli culture liquid was then used as a pre-culture liquid and added to 200 ml of culture liquid followed by final culturing overnight at 25° C.\nFollowing final culturing overnight, the E. coli culture liquid was centrifuged (1000×g, 4° C., 10 minutes), the collected cells were suspended in 20 ml of extract (composition: buffer (KCl: 300 mM, KH2PO4: 50 mM, imidazole: 5 mm) (pH 8.0), amidinophenylmethanesulfonyl fluoride hydrochloride (APMSF): 10 μM), and after crushing the E. coli by ultrasonic treatment, the crushed cells were centrifuged (1400×g, 4° C., 20 minutes) followed by recovery of the supernatant. This supernatant was passed through a 0.45 μm filter and purified by His-Tag protein purification using Profinia (Bio-Rad Laboratories, Inc.) in accordance with the protocol recommended by the manufacturer. The resulting purified protein solution was centrifuged (7500×g, 4° C., 15 minutes) using centrifugal filters (Ultracel-10K, Amicon Corp.) and the concentrated protein solution was designated as “NmGT8 Protein Solution”. The Avanti HP-26XP (rotor: JA-2) (Beckman Coulter Inc.) was used for centrifugation.\nA reaction liquid prepared by mixing 10 μl of protein solution, 2 μl of 50 mM UDP-glucose, 10 μl of 1 M Tris HCl (pH 7.5) and 5 μl of 1 mM apigenin on ice and bringing to a volume of 100 μl with water was held for 20 minutes at 30° C. Subsequently, 100 μl of stop buffer (90% aqueous acetonitrile solution containing 0.1% TFA) were added to stop the reaction followed by analyzing the reaction liquid by high-performance liquid chromatography (Prominence (Shimadzu Corp.)). The Shimadzu PDA SPD-M10AVP was used for the detector and flavone was detected at 330 nm. The Shim-Pack ODS 150 mm×4.6 mm column (Shimadzu Corp.) was used for the column. A Solution A (0.1% aqueous TFA solution) and a Solution B (90% aqueous methanol solution containing 0.1% TFA) were used for elution. Elution was carried out using a linear concentration gradient from an 8:2 mixture of the two solutions to a 3:7 mixture of the two solutions over the course of 10 minutes followed by a 3:7 mixture for 6 minutes. The flow rate was 0.6 ml/min.", "values": [
      {"smiles": "O=c1cc(-c2ccc(O)cc2)oc2cc(O[C@@H]3O[C@H](CO)[C@@H](O)[C@H](O)[C@H]3O)cc(O)c12", "note": "[apigenin 7-glucoside]", "glycosylation product biosynthesized from the substrate": "apigenin 4′,7-diglucoside was not biosynthesized"},
      {"smiles": "O=c1cc(-c2ccc(O)cc2)oc2cc(O)cc(O)c12", "note": "[apigenin, 4′,5,7-trihydroxyflavone]", "glycosylation product biosynthesized from the substrate": "flavone demonstrating the same retention time and absorption maximum as purified apigenin 4′-glucoside was biosynthesized"},
      {"smiles": "O=c1cc(-c2ccc(O)c(O)c2)oc2cc(O[C@@H]3O[C@H](CO)[C@@H](O)[C@H](O)[C@H]3O)cc(O)c12", "note": "[luteolin 7-glucoside]", "glycosylation product biosynthesized from the substrate": "luteolin 4′,7-diglucoside was also not biosynthesized"},
      {"smiles": "O=c1cc(-c2ccc(O)c(O)c2)oc2cc(O)cc(O)c12", "note": "[luteolin, 3′,4′,5,7-tetrahydroxyflavone]", "glycosylation product biosynthesized from the substrate": "Luteolin 4′-glucoside was biosynthesized"}
    ]}
  ]
}
